Measurements as given in patent publication US12071436B2, “Anti-parasitic compounds and uses thereof” (Memorial Sloan-Kettering Cancer Center, priority 2016, dated 2024).
Like-named read-outs stand apart in the source and are kept apart here.

Experiments:
[1] = Caco-2 bi-directional permeability; format: in vitro ADME; settings: human, Caco-2, pH 7.4
Procedure: To evaluate the bi-directional Caco-2 permeability of compounds 21 and 37, Caco-2 cells were grown in Dulbecco's Modified Eagle Medium (DMEM) (20% Fetal bovine serum (FBS)) until 85-90% confluence. After attaining required confluence, cells were trypsinized and seeded into 24 well millcell plates at a density of 0.6×10^5 cells/insert. The plates were maintained for 21 days at 37° C. in CO2 incubator with change of medium every alternative day. Monolayer integrity was monitored by measuring Trans-epithelial electrical resistance (TEER) from day 15. Caco-2 cell monolayer was washed twice with HBSS and incubated for 30 min in CO2 incubator. TEER values were measured and wells showing TEER values above 230 ohms·cm2 were taken for experiments. Bi-directional permeability study was initiated by adding appropriate volume of HBSS containing the test compounds or probe P-gp substrate loperamide to either the apical (A-B transport) or basal side (B-A transport) of the monolayer. At selected time points (0, 15, 30, 60 and 90 mins) an aliquot of 50 μL was collected from the receiver compartment for determination of test compound concentrations. The volume withdrawn was replaced immediately with plain HBSS buffer (pH 7.4). TEER was measure at the end of the experiment to test the post experiment monolayer integrity. […]

[2] = Metabolic stability in mice liver microsomes (MLM), 0.25 mg/mL; format: in vitro ADME; settings: mouse, pH 7.4, 1 μM compound, 0.25 mg/mL microsomes, NADPH, read-out: microsomal stability (t1/2, mouse): 0.25 mg/mL hepatic microsomes
Procedure: To evaluate the metabolic stability of compounds 21 and 37 in mice liver microsomes (MLM), a 1120 μL aliquot of potassium phosphate buffer (50 mM, pH 7.4) containing mice liver microsomes (0.357 mg/mL) was added to individual 2 mL tubes (final concentration 0.25 mg/mL). Imipramine in MLM was run as positive controls. Test compounds (compound 21 or compound 37) and positive control compounds (1 mM DMSO stocks) were directly spiked into respective tubes to prepare a concentration of 1.428 μM (final concentration 1 μM). From the above mix, 70 μL was added to individual wells of 96 well reaction plates and pre-incubated in a 37° C. water bath for 5 min. All the reactions were initiated by adding 30 μL of 3.33 mM NADPH (final concentration 1 mM). Reactions without NADPH and heat inactivated microsomes minus NADPH (0 min and 60 min) were also incubated to rule out non-NADPH metabolism or chemical instability in the incubation buffer. All reactions were terminated using 100 μL of ice-cold acetonitrile containing internal standard (glipizide—2 μM) at 0, 5, 15 and 60 min. The plates were centrifuged at 4000 RPM for 15 min and 100 μL aliquots were submitted for analysis by LC-M/MS. Samples were monitored for parent compound disappearance in Multiple reaction monitoring (MRM) mode using LC-MS/MS.

Plasma stability = format: in vitro ADME; settings: C57BL/6; 10 μM in undiluted mouse plasma, 37° C., out to four hours; read-out: plasma stability (t1/2, mouse)
Procedure: To evaluate the plasma stability of selected compounds, 10 μM of each selected compound was incubated with undiluted plasma. Plasma was freshly obtained from C57BBl\6 mice drawn in the vivarium and used immediately. Plasma was brought to 37° C. within a 96-well plate and then the compound is introduced via a DMSO stock solution. The sample was continually shaken at 37° C. and aliquots are removed at multiple time points out to four hours. Aliquots were added to acetonitrile (5× v:v) to stop any enzymatic activity and held on ice. At the end of the assay, the samples were centrifuged through a Millipore Multiscreen Solvinter 0.45 micron low binding PTFE hydrophilic filter plate and analyzed by LC-MS/MS. Data was log transformed and represented as half-life.

Cytotoxicity (Table 1) = format: cell-based
HepG2 = assay: Cytotoxicity screening in HepG2 (CellTiter Glo, fluorescence microscopy); format: cell-based; settings: Homo sapiens, 48 hours
Procedure: To evaluate the cytotoxicity of selected compounds, cell viability assays (CellTiter Glo) were conducted. Each compound (compound 21 or compound 37) was plated in triplicate starting at their respective stock concentration. They were serially diluted column-wise for ten 3× dilutions using DMSO as the diluent. Staurosporine was used as positive control for DRC (dose response curve), and was plated starting at 1.25 mM. This plate was used as a source plate to make the assay plates by transferring 0.1 μl into 25 μl assay volume to reach the right working concentration for each compound. HepG2 and MRC5 were plated at a density of 1500 cells/25 μl in well in the assay plate and allowed to settle overnight. 0.1 μL of compounds was then transferred from the source plate, into the cell assay plates. The cells were left to incubate with the compounds for 48 hours, after which, 25 μL of Promega Cell Titer-Glo was added to each well, and allowed to incubate at room temperature with shaking for 20 minutes. RLU's (Relative Light Units) for each well were then recorded on a BioTek Synergy NEO. Fluorescence microscopy was also used to evaluate the cytotoxicity of selected compounds. Cells were plated at a density of 1500 cells/25 μl in well in a 384 wells plate the day before incubation with the drugs. The following day, 0.1 μl of the source plate are added to the assay plate. Then, 25 μl of a fluorophores mixture containing Hoechst 33342, Syto17 diluted in Eagle's Minimum Essential Medium (EMEM) was added to each well. Plates are read after 48 hours of incubation in the ImageXpress instrument (Molecular Devices) using the appropriate filters.

[3] = Plasma protein binding by equilibrium dialysis; format: in vitro ADME; settings: mouse, 37° C.
Procedure: To evaluate the plasma protein binding of selected compounds, equilibrium dialysis was used. All samples of the selected compounds were tested in triplicate using the RED Rapid Equilibrium Dialysis Device (Thermo Scientific). The initial drug concentration in the plasma chamber was 5 μM and phosphate buffered saline was added to the receiver chamber. The plate was covered and allowed to shake in a 37° C. incubator for 6 hours. 25 μl was sampled from the plasma and PBS chambers which were then diluted with either blank PBS or plasma to achieve a 1:1 ratio or plasma:PBS for all samples. The concentration of drug in the plasma and PBS chambers were determined by LC-MS/MS. The fraction bound was calculated as ([plasma]−[PBS])/[plasma].

[4] = read-out: HepG2 IC50, Cell Count
[5] = read-out: HepG2 IC50, Cellular ATP
[6] = read-out: HepG2 IC50, Membrane Integrity

Row | efflux ratio at 90 min [1] | half-life at 1 μM [2] [min] | half-life at 10 μM (Plasma stability) [min] | fraction unbound at 6 h, 5 μM [3] | Structure (SMILES) | Cytotoxicity (Cytotoxicity (Table 1)) [µM] | IC50 (HepG2; [4]) [µM] | IC50 (HepG2; [5]) [µM] | IC50 (HepG2; [6]) [µM]
1 | 13.2 | 13 | > 240 | 0.081 | CN(C)CC#Cc1cccc(-c2nc(C(=O)N[C@@H]3CCN(Cc4ccccc4)C3)cc3c2[C@@H](CCO)N([S@+]([O-])C(C)(C)C)C3)c1 [compound 37, (R)-N-((R)-1-Benzylpyrrolidin-3-yl)-2-((R)-tert-butylsulfinyl)-4-(3-(3-(dimethylamino)prop-1-yn-1-yl)phenyl)-3-(2-hydroxyethyl)-2,3-dihydro-1H-pyrrolo[3,4-c]pyridine-6-carboxamide] | >10 | 56.2 | 54.2 | 90.6
2 | 24.9 | 46 | > 240 | 0.045 | CN(C)CC#Cc1cccc(-c2nc(C(=O)NCc3ccc4c(c3)OCO4)cc3c2[C@@H](CCO)N([S@+]([O-])C(C)(C)C)C3)c1 [compound 21, (R)-N-(Benzo[d][1,3]dioxol-5-ylmethyl)-2-((R)-tert-butylsulfinyl)-4-(3-(3-(dimethyl-amino)prop-1-yn-1-yl)phenyl)-3-(2-hydroxyethyl)-2,3-dihydro-1H-pyrrolo[3,4-c]pyridine-6-carboxamide] | >10 | 51.3 | 52.5 | 62.1
